Results on 17 molecules are retold here after US3935199A, “Iminomethylindolines” (Mead Johnson & Company, priority 1974, dated 1976).

Assay [1] relates to phenylquinone writhing syndrome in mice. The experiment in a line: prevention of phenylquinone writhing (analgesic activity). Conditions: Mus musculus, sc, 10 min, read-out: ED50 (prevention of phenylquinone writhing). The format is in vivo. The procedure: The prevention of this syndrome is employed as a measure of analgesic activity -- Hendershot and Forsaith, J. Pharmacol. Exp. Therap. […] In this test, groups of 10 to 20 mice are injected subcutaneously with graduated doses of the test compound. At the time of a predetermined peak effect, the animals are administered a dose of 2.5 milligrams per kilogram of body weight of phenylquinone intraperitoneally. The latter injection induces writhing episodes in the mice. […] A log dose-response curve is prepared and the dose of the test compound required to decrease the number of writhing episodes of 50 percent is estimated by interpolation.

For assay [2], the system named is chloral hydrate treated mice. The experiment in a line: chloral hydrate antagonism test in the mouse (sleeping time). The format is in vivo, mouse (male albino mice). Particulars: oral 20 mg/kg, followed by 300 mg/kg i.p. chloral hydrate, compared to saline-treated control group, read-out: Percent Reduction in Sleeping Time at 20 mg/kg Body Weight. The procedure: (§1) The compounds of the present invention effectively stimulate the central nervous system of mammals. Compounds having biological activity of this type are generally referred to as being analeptic agents.
According to the chloral hydrate antagonism test, groups of 20 fasted male albino mice are administered an oral dose of 20 milligrams per kilogram of the 1-iminomethylindoline test compound. This is followed immediately by an intraperitoneal dose of 300 milligrams per kilogram of chloral hydrate. The average reduction in sleeping time compared to a saline-treated control group is a measure of the central nervous system stimulant action of the test compound and is as follows for representative 1-iminomethylindolines of this invention.

Assay [3] concerns pentobarbital treated cats. The experiment in a line: pentobarbital antagonism test in the cat. The format is in vivo. Conditions: comparison of 4-ethyl-4-methyl-2,6-piperidinedione and the two preferred compounds. How it is done: as §1
The pentobarbital antagonism test for the compounds of the present invention in the cat is carried out in the following fashion. A cat of either sex wherein a chronically indwelling intravenous cannula has been previously surgically inserted, is placed in an observation cubicle measuring 2 ft. × 2ft. × 2ft. The cat is allowed to move about freely at the end of a leash. A dose of 12 milligrams per kilogram of body weight of pentobarbital sodium in aqueous solution is infused at the rate of approximately 2 milligrams per kilogram per minute via tubing contained in the leash. One-half hour after the start of this infusion the cat is in a state of light anesthesia characterized by unconsciousness, immobility, relaxed nictating membrane, and is not responsive to handling but has active pinneal, palpebral and paw-pinch withdrawal reflexes. At this time the 1-iminomethylindoline compound is infused in concentration of 10 milligrams per milliter at a rate of 0.2 milliters per minute until (a) consciousness is restored, (b) a total of 25 milligrams per kilogram of body weight of test compound is administered or (c) mounting toxicity interferes. Consciousness is recognized by the presence of alertness to surroundings as indicated by the ability of the cat's eyes to follow a movement of a nearby object and in its attempts to assume an upright position.
Representative compounds of the present invention wherein a dose of up to 25 milligrams per kilogram of body weight restored consciousness to pentobarbital treated cats are Examples 1-4, 7-10, 12, 15, 17-20, (Table III).

For assay [4], the system named is chloral hydrate treated mice. In words: chloral hydrate antagonism test in the mouse (sleeping time). The class given is in vivo, mouse (male albino mice). Particulars: po, read-out: dose producing a 50 percent reduction of the sleeping time.
The test system of another assay is motor activity in rats. The experiment in a line: activity cage technique (motor stimulation in rats). The class given is in vivo, rat. An excerpt: The activity cage technique described by J. W. Kissel, Science, 139, 1224 (1963), was used to measure motor stimulation in rats. […] Since motor stimulation is generally associated with analeptic action, the instant compounds of this invention are unique in the respect that while they are analeptic agents they are not motor stimulants.

Where [5] appears, read: subcutaneous, phenylquinone 2.5 mg/kg i.p., episodes counted during 10 minutes.
[6] abbreviates: mouse, 300 mg/kg chloral hydrate, comparative test.

Structures can show the parent of a compound that is named as a salt. Where two headings read alike, the source gives them in different places.

In the case of `CN=CN1CCc2ccccc21.Cl` [Example 1, 1-[(Methylimino)methyl]indoline hydrochloride], the ED50 in assay [1] (setting [5]) turned out to be 21.8 mg/kg. Regarding `CC(C)N=CN1CCc2ccccc21` [Example 2, 1-[(Isopropylimino)methyl]indoline hydrochloride hemihydrate], the inhibition in vivo at 20 mg/kg in assay [2] was determined as 38%. On to `CC1CCC(N2CCc3ccccc32)=N1` (centres unmarked) [Example 8, 1-[2-(5-Methyl-1-pyrrolinyl)]indoline hydrochloride], for which the inhibition in vivo at 20 mg/kg in assay [2] came out at 36%. Besides, the ED50 in assay [1] (setting [5]) was 13 mg/kg. As for `CCC1(C)CC(=O)NC(=O)C1` [4-ethyl-4-methyl-2,6-piperidinedione, reference compound], the “comparison of pentobarbital antagonism: restoring consciousness to a pentobarbital treated cat” value (shortened to “comparison of pentobarbital antagonism”) in assay [3] was “substantially equiactive”. For the same molecule, the ED50 in assay [4] (Mus musculus) came to 14.4 mg/kg. For `c1ccc2c(c1)CCN2C1=NCCC1` [Example 7, 1-[2-(1-Pyrrolinyl)]indoline hydrochloride], the inhibition in vivo at 20 mg/kg in assay [2] worked out at 10%. For the same molecule, in assay [1] (setting [5]), the ED50 was determined as 3.85 mg/kg. For the molecule `CC(=O)Oc1ccccc1C(=O)O` [Aspirin, reference compound], the ED50 in assay [1] worked out at 20 mg/kg. With `c1ccc2c(c1)CCN2C1=NCCSC1` [Example 12, 1-[5,6-Dihydro-3-(2H-thiazinyl)]indoline hydrochloride], the ED50 in assay [1] (setting [5]) came out at 11.3 mg/kg. For `Cl.c1ccc2c(c1)CCN2C1=NCCCC1` [Example 10, 1-(3,4,5,6-Tetrahydro-2-pyridyl)-indoline hydrochloride], the ED50 in assay [1] (setting [5]) was 5.7 mg/kg.

Turning to `CC(=O)c1ccc2c(c1)CCN2C1=NCCC1` [Example 17, 5-Acetyl-1-[2-(1-pyrrolinyl)]indoline], in the assay on motor activity in rats, the motor activity entry is reported as “did not produce an increase in motor activity”. For the same molecule, in assay [3], the “comparison of pentobarbital antagonism” value was “substantially equiactive”. For the same molecule, in assay [2], the inhibition in vivo at 20 mg/kg was determined as 62%. Also, the ED50 was 7.7 mg/kg in assay [1] (setting [5]) and 10 mg/kg in assay [4] (setting [6]).

Regarding `CC1(C)CCC(N2CCc3ccccc32)=N1` [Example 9, 1-[2-(5,5-Dimethyl-1-pyrrolinyl)]-indoline hydrochloride], in the assay with motor activity in rats, the motor activity entry is listed as “did not produce an increase in motor activity”. Moreover, the “comparison of pentobarbital antagonism” value in assay [3] was “substantially equiactive”. Further, the inhibition in vivo at 20 mg/kg in assay [2] amounted to 65%. Moreover, the ED50 in assay [4] (setting [6]) stood at 15 mg/kg.

For the molecule `CN=C(NC)N1CCc2ccccc21` [Example 4, 1-(N,N'-Dimethylamidino)indoline], the inhibition in vivo at 20 mg/kg in assay [2] amounted to 24%. For `CC(=O)c1ccc2c(c1)CCN2C1=NCCCCC1` [Example 18, 5-Acetyl-1-[7-(3,4,5,6-tetrahydro-2H-azepinyl)]indoline hydrochloride], the inhibition in vivo at 20 mg/kg in assay [2] came to 17%. Besides, in assay [1] (setting [5]), the ED50 stood at 16.2 mg/kg.

As for `CN=C(C)N1CCc2ccccc21.Cl` [Example 3, 1-[1-(Methylimino)ethyl]indoline hydrochloride], the inhibition in vivo at 20 mg/kg in assay [2] amounted to 24%. Also, the ED50 in assay [1] (setting [5]) was 15.8 mg/kg. For the molecule `O=[N+]([O-])c1ccc2c(c1)CCN2C1=NCCCCC1` [Example 21, 1-[7-(3,4,5,6-Tetrahydro-2H-azepinyl)]-5-nitroindoline hydrochloride], the inhibition in vivo at 20 mg/kg in assay [2] was found to be 50%. As for `Cl.c1ccc2c(c1)CCN2C1=NCCN1` [Example 13, 1-(2-Imidazolin-2-yl)indoline hydrochloride], in assay [1] (setting [5]), the ED50 is 33.2 mg/kg. Take `c1ccc2c(c1)CCN2C1=NCCCCC1` [Example 11, 1-[7-(3,4,5,6-Tetrahydro-2H-azepinyl)]-indoline hydrochloride]: in assay [1] (setting [5]), the ED50 was determined as 17.1 mg/kg. Consider `CN=CN1CCc2cc([N+](=O)[O-])ccc21.Cl` [Example 19, 1-[(Methylimino)methyl]-5-nitro-indoline hydrochloride], for which the ED50 in assay [1] (setting [5]) stood at 10.3 mg/kg.
